Data taken from ChEMBL document CHEMBL1201862, “PubChem BioAssay data set” (2004).
Activity calls are given as the source filed them.

Experiments:
[1] = biological target: Signal transducer and activator of transcription 3 (Homo sapiens, UniProt P40763); assay: STAT3 activation with BCL3 mRNA and toxicity – cell-based, […], BCL3 qPCR, cytotoxicity, late-stage follow-up, panel member STAT3 Activation (AID 2049)
[2] = microbe, parasite or virus in culture; type: functional; settings: Mycobacterium tuberculosis
[3] = Cytotoxicity screening for potential Inhibitors of Bacterial Capsule Biogenesis. [Related pubchem assays (depositor defined):AID488970]; type: functional
[4] = biological target: Heat shock protein HSP 90-alpha (Homo sapiens, UniProt P07900); type: functional, organism-based
Coagulation factor XII = biological target: T1, Coagulation factor XII (Homo sapiens, UniProt P00748); assay: activated coagulation factor XII inhibitor potency, concentration-effect curve, cell-free (AID 716); type: functional
T1 sequence (P00748 whole entry): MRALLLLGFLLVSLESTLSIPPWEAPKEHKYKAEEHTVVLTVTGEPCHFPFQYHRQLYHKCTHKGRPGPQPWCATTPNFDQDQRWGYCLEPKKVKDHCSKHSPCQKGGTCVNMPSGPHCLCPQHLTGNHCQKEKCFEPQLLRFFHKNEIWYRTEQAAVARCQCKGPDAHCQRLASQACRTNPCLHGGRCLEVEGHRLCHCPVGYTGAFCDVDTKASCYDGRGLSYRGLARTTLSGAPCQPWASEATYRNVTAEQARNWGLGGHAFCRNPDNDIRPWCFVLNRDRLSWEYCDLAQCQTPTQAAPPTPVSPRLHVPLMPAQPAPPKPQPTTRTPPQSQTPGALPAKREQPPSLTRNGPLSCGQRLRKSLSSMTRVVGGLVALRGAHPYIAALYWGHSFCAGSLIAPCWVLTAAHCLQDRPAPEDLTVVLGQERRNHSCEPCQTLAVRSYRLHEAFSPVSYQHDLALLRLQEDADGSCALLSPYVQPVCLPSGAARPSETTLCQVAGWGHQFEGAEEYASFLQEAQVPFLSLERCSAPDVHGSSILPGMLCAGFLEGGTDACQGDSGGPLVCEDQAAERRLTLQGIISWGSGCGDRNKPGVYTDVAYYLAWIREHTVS

[5] = biological target: T2, Voltage-gated N-type calcium channel alpha-1B subunit/Amyloid beta A4 precursor protein-binding family A member 1 (Homo sapiens, UniProt Q00975+Q02410); type: protein assay
[6] = biological target: Luciferin 4-monooxygenase (Photinus pyralis, UniProt P08659); assay: inhibition of purified Photinus pyralis luciferase – biochemical, luminescence, dose response (AID 1891)
[7] = Luminescence Cell-Based Dose Confirmation HTS to Identify Inhibitors of Platelet Dense Granule Release. [Related pubchem assays: 1663 (Primary HTS), 1678 (Summary of Project)]; type: functional
[8] = biological target: T2, Voltage-gated N-type calcium channel alpha-1B subunit/Amyloid beta A4 precursor protein-binding family A member 1; type: protein assay; remark: listed apart in the source
Beta-galactosidase = Beta-galactosidase (Escherichia coli, UniProt Q8VNN2); assay: detection-enzyme interference by beta-gal modulators – biochemical, E. coli enzyme, set 3, artefact control for CCR6 antagonist project, dose response (AID 504712); type: functional
[9] = Fluorescence-based cell-based high throughput dose response assay for inhibitors of the interaction of nucleotide-binding oligomerization domain containing 2 (NOD2) and the receptor-interacting serine-threonine kinase 2 (RIPK2).; type: functional; settings: Homo sapiens
Beta Lactamase = Beta Lactamase (Pseudomonas aeruginosa, UniProt Q932Y6); assay: BLA reporter interference, concentration series – BLA reporter cells, FRET fluorescence, artefact control for NOD2-RIPK2 interaction inhibitor project, dose response (AID 651552); type: functional, cell-based
Wee1-like protein kinase = Wee1-like protein kinase (Homo sapiens, UniProt P30291); assay: HeLa cell cycle G2/M accumulation – FACS, mechanism study for Wee1 degradation inhibitor project, late-stage follow-up, panel member Wee1 Degradation (AID 2088)
[10] = biological target: G2/mitotic-specific cyclin-B1 (Homo sapiens, UniProt P14635); assay: HeLa cell cycle G2/M accumulation – FACS, mechanism study for Wee1 degradation inhibitor project, late-stage follow-up, panel member Cyclin B Degradation (AID 2088)
Hexokinase = Hexokinase (Trypanosoma brucei, UniProt Q38C41); assay: Confirmation assay for inhibitors of Trypanosoma brucei hexokinase 1-Analogue-first series. [Related pubchem assays (depositor defined):AID1430, AID1632, AID2516, AID2560, AID2579, AID2600, AID449725, AID492951]; type: functional

T2 sequence (Q00975 whole entry): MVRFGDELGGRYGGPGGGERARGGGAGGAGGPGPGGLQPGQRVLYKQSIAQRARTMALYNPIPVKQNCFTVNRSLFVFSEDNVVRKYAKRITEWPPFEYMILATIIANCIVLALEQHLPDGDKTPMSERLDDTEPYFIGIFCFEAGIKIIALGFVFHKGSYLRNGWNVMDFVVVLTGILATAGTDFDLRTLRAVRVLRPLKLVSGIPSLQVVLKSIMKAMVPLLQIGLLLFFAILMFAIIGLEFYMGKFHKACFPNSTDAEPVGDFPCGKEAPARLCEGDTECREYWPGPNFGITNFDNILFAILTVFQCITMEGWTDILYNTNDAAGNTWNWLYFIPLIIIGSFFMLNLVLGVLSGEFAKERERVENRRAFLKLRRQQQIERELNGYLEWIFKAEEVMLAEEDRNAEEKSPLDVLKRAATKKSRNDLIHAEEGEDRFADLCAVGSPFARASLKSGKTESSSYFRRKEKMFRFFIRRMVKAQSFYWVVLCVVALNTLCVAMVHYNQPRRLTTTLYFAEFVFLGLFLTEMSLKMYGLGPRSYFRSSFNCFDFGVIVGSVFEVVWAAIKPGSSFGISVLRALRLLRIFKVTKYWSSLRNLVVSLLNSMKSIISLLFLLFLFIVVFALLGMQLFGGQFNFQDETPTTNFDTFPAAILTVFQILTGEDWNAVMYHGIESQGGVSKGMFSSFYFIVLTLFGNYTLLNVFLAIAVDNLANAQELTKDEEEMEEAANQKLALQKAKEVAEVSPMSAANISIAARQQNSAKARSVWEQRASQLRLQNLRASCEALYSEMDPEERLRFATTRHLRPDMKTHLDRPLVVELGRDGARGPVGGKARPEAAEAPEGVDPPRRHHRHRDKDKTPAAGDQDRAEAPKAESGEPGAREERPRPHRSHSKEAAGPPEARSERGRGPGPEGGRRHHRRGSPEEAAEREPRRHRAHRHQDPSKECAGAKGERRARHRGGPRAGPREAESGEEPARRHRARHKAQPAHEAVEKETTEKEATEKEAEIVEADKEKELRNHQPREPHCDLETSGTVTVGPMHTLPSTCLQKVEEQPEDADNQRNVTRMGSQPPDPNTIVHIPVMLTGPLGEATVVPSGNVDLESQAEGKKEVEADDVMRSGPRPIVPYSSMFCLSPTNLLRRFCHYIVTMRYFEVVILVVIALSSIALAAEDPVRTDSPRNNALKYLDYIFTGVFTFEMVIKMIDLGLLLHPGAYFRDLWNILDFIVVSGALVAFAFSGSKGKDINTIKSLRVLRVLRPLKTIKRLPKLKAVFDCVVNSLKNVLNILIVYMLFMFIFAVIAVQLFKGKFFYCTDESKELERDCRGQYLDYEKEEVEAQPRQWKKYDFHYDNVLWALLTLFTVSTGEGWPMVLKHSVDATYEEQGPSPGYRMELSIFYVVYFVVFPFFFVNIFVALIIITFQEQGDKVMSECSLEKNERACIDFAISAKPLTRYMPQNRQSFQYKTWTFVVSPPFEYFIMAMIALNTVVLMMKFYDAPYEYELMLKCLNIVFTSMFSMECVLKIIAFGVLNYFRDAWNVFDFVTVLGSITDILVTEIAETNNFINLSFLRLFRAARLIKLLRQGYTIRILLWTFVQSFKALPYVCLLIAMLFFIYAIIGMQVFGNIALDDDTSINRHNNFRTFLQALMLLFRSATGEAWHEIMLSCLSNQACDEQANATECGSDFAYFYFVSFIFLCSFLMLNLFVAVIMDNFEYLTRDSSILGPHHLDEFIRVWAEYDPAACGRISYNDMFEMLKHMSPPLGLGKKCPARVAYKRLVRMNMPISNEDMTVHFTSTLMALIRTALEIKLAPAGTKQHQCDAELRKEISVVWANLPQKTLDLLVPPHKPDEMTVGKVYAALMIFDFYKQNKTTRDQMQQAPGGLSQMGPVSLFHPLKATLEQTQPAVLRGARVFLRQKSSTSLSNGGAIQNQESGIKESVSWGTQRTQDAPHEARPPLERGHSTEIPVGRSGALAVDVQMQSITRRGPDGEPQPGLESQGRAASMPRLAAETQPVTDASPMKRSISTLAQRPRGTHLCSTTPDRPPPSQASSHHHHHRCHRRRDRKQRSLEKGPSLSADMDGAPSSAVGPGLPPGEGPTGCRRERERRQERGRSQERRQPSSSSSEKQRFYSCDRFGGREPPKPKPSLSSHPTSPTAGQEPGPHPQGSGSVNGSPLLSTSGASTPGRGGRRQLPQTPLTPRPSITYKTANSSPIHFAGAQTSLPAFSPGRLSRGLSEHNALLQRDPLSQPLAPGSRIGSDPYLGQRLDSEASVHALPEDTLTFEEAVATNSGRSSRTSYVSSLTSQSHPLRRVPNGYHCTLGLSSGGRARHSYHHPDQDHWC
T2 sequence (Q02410 whole entry): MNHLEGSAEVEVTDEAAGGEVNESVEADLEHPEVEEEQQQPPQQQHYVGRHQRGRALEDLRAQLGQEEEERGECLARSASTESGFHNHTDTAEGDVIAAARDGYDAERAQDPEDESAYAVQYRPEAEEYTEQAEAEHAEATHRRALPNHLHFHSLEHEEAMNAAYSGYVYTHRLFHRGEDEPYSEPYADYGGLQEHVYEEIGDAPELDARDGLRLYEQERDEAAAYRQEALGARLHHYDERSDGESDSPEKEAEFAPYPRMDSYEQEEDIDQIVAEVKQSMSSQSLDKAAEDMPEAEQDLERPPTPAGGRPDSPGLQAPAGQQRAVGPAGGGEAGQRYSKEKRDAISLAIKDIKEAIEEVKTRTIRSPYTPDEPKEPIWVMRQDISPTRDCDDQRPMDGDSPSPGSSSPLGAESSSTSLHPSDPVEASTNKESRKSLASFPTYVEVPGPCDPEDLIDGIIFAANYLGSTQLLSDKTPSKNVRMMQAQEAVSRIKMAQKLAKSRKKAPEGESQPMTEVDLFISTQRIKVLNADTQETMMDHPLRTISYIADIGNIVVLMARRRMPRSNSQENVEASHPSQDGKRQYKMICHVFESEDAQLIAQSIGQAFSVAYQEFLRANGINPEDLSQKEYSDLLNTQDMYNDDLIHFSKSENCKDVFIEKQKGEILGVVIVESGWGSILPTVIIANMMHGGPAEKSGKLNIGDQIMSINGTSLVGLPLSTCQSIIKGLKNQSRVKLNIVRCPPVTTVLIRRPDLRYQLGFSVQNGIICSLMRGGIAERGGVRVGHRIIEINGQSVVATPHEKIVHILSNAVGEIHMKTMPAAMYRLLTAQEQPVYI
Signal transducer and activator of transcription 3, sequence (P40763 whole entry): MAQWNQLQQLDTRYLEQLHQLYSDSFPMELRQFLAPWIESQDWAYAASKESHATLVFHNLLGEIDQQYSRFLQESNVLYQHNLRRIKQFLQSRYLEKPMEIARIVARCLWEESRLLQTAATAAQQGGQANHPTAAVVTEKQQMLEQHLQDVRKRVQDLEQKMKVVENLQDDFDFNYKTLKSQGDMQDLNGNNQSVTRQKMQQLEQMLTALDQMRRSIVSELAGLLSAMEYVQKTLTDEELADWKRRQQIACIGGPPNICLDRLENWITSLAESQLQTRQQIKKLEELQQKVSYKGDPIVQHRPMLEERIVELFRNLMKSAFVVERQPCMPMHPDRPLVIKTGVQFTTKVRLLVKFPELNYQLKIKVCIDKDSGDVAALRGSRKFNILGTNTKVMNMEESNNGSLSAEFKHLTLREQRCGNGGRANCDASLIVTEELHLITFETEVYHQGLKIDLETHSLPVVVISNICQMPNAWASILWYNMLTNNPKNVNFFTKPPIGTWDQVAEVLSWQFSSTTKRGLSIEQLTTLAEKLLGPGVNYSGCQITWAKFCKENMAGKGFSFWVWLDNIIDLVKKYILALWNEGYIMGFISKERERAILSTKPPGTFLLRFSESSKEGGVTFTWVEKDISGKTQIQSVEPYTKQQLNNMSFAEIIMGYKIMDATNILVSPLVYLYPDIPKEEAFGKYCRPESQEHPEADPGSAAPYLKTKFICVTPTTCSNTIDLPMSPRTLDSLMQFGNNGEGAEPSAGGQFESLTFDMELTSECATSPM
Luciferin 4-monooxygenase, sequence (P08659 whole entry): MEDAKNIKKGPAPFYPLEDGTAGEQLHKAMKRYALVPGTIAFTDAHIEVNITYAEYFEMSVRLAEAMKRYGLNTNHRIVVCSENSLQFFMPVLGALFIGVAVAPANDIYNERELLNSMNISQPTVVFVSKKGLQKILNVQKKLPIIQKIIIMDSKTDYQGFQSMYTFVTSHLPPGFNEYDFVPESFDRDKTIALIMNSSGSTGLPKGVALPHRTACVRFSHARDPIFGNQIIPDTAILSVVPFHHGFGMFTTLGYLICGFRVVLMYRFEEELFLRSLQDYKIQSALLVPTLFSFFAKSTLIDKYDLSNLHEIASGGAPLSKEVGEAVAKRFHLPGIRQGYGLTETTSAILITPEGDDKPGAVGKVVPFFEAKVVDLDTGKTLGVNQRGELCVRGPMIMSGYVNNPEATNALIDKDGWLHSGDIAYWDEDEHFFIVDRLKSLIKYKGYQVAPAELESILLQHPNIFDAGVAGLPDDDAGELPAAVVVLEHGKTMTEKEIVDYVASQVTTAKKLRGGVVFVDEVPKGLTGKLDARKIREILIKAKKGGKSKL
G2/mitotic-specific cyclin-B1, sequence (P14635 whole entry): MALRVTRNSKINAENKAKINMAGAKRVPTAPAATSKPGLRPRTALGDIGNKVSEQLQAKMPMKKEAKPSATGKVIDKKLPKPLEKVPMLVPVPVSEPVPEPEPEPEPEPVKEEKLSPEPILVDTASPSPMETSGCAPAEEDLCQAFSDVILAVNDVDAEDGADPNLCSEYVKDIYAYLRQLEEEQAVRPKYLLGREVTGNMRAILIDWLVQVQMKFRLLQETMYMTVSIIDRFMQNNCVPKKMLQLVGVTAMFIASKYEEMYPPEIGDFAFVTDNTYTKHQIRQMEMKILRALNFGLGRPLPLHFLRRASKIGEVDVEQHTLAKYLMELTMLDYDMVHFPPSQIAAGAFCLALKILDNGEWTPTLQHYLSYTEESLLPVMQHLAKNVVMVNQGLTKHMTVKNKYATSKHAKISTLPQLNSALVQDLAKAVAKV

## COc1ccc(Cl)cc1NC(=O)c1cc(C2CC2)on1
[1]
  EC50: 0.00455 µM (active)

## O=C1C2(Cl)C3(Cl)C4(Cl)C(Cl)(Cl)C5(Cl)C3(Cl)C1(Cl)C5(Cl)C24Cl (stereo not given) [KEPONE]
[2]
  CC50: 22.6 µM (active)
[3]
  CC50: 8.69 µM (active)
[4]
  AC50: 2.68 µM (active)

## Cc1ccc(NC(=O)C[S+]([O-])CC(=O)NCC2CCCO2)cc1 (stereo not given)
Coagulation factor XII
  IC50: > 50 µM (inactive)

## O=C1C=C(c2ccccc2)C(=O)N1Nc1ccccc1
[5]
  IC50: 20.4 µM (active)
[6]
  EC50: > 112 µM (not active)
[7]
  EC50: 8.82 µM (active)
[8]
  IC50: 45.8 µM (active)
Beta-galactosidase
  IC50: > 66.6 µM (inactive)
[9]
  IC50: 1.68 µM (active)
Beta Lactamase
  IC50: 18.7 µM (inactive)

## Cc1cc(O)nc(-n2nc(C)cc2NC(=O)c2ccccc2Cl)n1
Wee1-like protein kinase
  EC50: > 16.6 µM (active)
[10]
  EC50: > 49.7 µM (inactive)

## COc1ccc(C(=O)NC(CC(=O)O)c2cccc(Cl)c2)cc1 (stereo not given)
Hexokinase
  IC50: > 25 µM (inactive)
